Like-named read-outs stand apart in the source and are kept apart here.
What was measured:
[1] = tested on: beet armyworm (BAW; Spodoptera exigua: Lepidoptera); experiment: 96-well microtiter plate-based high throughput (HTS) diet bioassay on beet armyworm (BAW HTS); format: in vivo; conditions: BAW eggs, 12 μg test compound per well, mortality at 6 d post-treatment, mortality class; for pest or weed control at 12 µg/well, 12 µg/well: Spodoptera exigua, 144 h, read-out: BAW HTS
Method: (§1) Bioassays on beet armyworm (BAW; Spodoptera exigua: Lepidoptera) were conducted using either a 96-well microtiter plate-based high throughput (HTS) bioassay or a 128-well diet tray assay. The HTS assay is a based on a modification of Lewer et al. J. Nat. Prod. 2006, 69, 1506. BAW eggs of were placed on top of artificial diet (100 μl) in each well of 96-well microtiter plate. The diet was pretreated with test compounds (12 μg dissolved in 30 μL of DMSO-acetone-water mixture) layered on top of the diet using a liquid handling system and then allowed to dry for several hours. Infested plates were then covered with a layer of sterile cotton batting and the plate lid, and then held in the dark at 29° C. Mortality was recoded at 6 d post-treatment. Each plate had six replicates. The percent mortality was calculated from the average of the six replicates. In the case of the 128-well diet assay, three to five second instar BAW larvae were placed in each well (3 mL) of the diet tray that had been previously filled with 1 mL of artificial diet to which 50 μg/cm^2 of the test compound (dissolved in 50 μL of 90:10 acetone-water mixture) had been applied (to each of eight wells) and then allowed to dry. Trays were covered with a clear self-adhesive cover, and held at 25° C., 14:10 light-dark for six days. Percent mortality was recorded for the larvae in each well; activity in the eight wells was then averaged. In Table 7, under the BAW HTS or BAW 50 heading, an “A” means that the compound was tested and at least 50 percent mortality was observed whereas, “B” means that either (1) the compound was tested and less than 50 percent mortality was observed or (2) the compound was not tested.

[2] = tested on: beet armyworm (BAW; Spodoptera exigua: Lepidoptera); experiment: 128-well diet tray assay on beet armyworm (BAW 50); format: in vivo
Method: as §1

[3] = 96-well microtiter plate HTS diet assay
[4] = 128-well diet tray assay; 50 μg/cm^2 of test compound on diet; second instar BAW larvae; mortality class

Row | Compound | BAW HTS ([1]; 96-well HTS diet assay) | BAW HTS [1, 3] | BAW 50 ug/cm2 [2, 4] | BAW HTS ([1]; 96-well HTS diet bioassay) | other results
1 | CCCCO[C@@H]1[C@@H](OC)[C@H](C)O[C@@H](OC(=O)Nc2ccc(-n3cnc(-c4ccc(C(F)(F)F)cc4)n3)cc2)[C@@H]1OC [Compound 198] | A (the compound was tested and at least 50 percent mortality was observed) | A (the compound was tested and at least 50 percent mortality was observed) | A (the compound was tested and at least 50 percent mortality was observed) | – | –
2 | CCOC1C(OC)C(C)OC(ON=Cc2ccc(C3NC(c4ccc(OC(F)(F)F)cc4)=NO3)cc2)C1OC (mixture of isomers) [Compound 130] | – | A (the compound was tested and at least 50 percent mortality was observed) | A (the compound was tested and at least 50 percent mortality was observed) | A (the compound was tested and at least 50 percent mortality was observed) | –
3 | CCCO[C@@H]1[C@@H](OC)[C@@H](OC)[C@H](O/N=C/c2ccc(-c3ncn(-c4ccc(OC(F)(F)C(F)(F)F)cc4)n3)cc2)O[C@H]1C [Compound 113, 4-[1-(4-pentafluoroethyloxy-phenyl)-1H-[1,2,4]triazol-3-yl]-benzaldehyde, O-((2S,3R,4R,5S,6S)-3,4-dimethoxy-6-methyl-5-propoxy-tetrahydropyran-2-yl)-oxime] | – | B (either (1) the compound was tested and less than 50 percent mortality was observed or (2) the compound was not tested) | A (the compound was tested and at least 50 percent mortality was observed) | – | pest or weed control at 12 µg/well, 12 µg/well ([1]; 96-well HTS diet bioassay): < 50%; pest or weed control at 50 µg/cm2, 50 µg/cm2 ([2]; Spodoptera exigua, 144 h; 128-well diet tray assay, second instar BAW larvae, 50 μg/cm2 of test compound on diet; mortality class; read-out: BAW 50 ug/cm2): > 50%
4 | CCO[C@@H]1[C@@H](OC)[C@H](C)O[C@@H](OC(=O)Nc2ccc(-c3nn(-c4ccc(C(F)(F)F)cc4)c(=O)o3)cc2)[C@@H]1OC [Compound 249] | B (either (1) the compound was tested and less than 50 percent mortality was observed or (2) the compound was not tested) | B (either (1) the compound was tested and less than 50 percent mortality was observed or (2) the compound was not tested) | B (either (1) the compound was tested and less than 50 percent mortality was observed or (2) the compound was not tested) | – | –
5 | CCOC1C(C)OC(ON=Cc2ccc(-c3cn(-c4ccc(OC(F)(F)C(F)(F)F)cc4)cn3)cc2)C(OCC)C1OCC (centres unmarked) [Compound 52] | – | B (either (1) the compound was tested and less than 50 percent mortality was observed or (2) the compound was not tested) | A (the compound was tested and at least 50 percent mortality was observed) | B (either (1) the compound was tested and less than 50 percent mortality was observed or (2) the compound was not tested) | –
6 | COC1C(C)OC(ON=C(C)c2ccc(-c3cn(-c4ccc(OC(F)(F)F)cc4)cn3)s2)C(OC)C1OC (centres unmarked) [Compound 164] | B (either (1) the compound was tested and less than 50 percent mortality was observed or (2) the compound was not tested) | B (either (1) the compound was tested and less than 50 percent mortality was observed or (2) the compound was not tested) | B (either (1) the compound was tested and less than 50 percent mortality was observed or (2) the compound was not tested) | – | –
7 | COc1ccc(-n2cnc(-c3ccc(C=NOC4OC(C)C(OC)C(OC)C4OC)cc3)n2)cc1 (centres unmarked) [Compound 85] | – | B (either (1) the compound was tested and less than 50 percent mortality was observed or (2) the compound was not tested) | A (the compound was tested and at least 50 percent mortality was observed) | B (either (1) the compound was tested and less than 50 percent mortality was observed or (2) the compound was not tested) | –
8 | CO[C@@H]1[C@@H](OC)[C@H](C)O[C@H](OC(=O)Nc2ccc(-c3nc(C)n(-c4ccc(OC(F)(F)F)cc4)n3)cc2)[C@@H]1OC [Compound 195] | B (either (1) the compound was tested and less than 50 percent mortality was observed or (2) the compound was not tested) | B (either (1) the compound was tested and less than 50 percent mortality was observed or (2) the compound was not tested) | A (the compound was tested and at least 50 percent mortality was observed) | – | –
9 | CO[C@@H]1[C@@H](OC)[C@H](C)O[C@@H](O/N=C/c2ccc(-c3ncc(-c4ccc(OC(F)(F)C(F)(F)F)cc4)cn3)cc2)[C@@H]1OC [Compound 141] | A (the compound was tested and at least 50 percent mortality was observed) | A (the compound was tested and at least 50 percent mortality was observed) | A (the compound was tested and at least 50 percent mortality was observed) | – | –
10 | CO[C@@H]1[C@@H](OC)[C@H](C)O[C@@H](O/N=C/c2ccc(-c3cn(-c4ccc(OC(F)(F)F)cc4)cn3)cc2)[C@@H]1OC [Compound 26, 4-[1-(4-Trifluoromethoxyphenyl)-1H-imidazol-4-yl]-benzaldehyde O-((2S,3R,4R,5S,6S)-3,4,5-trimethoxy-6-methyl-tetrahydropyran-2-yl)-oxime] | – | – | – | A (the compound was tested and at least 50 percent mortality was observed) | pest or weed control at 12 µg/well, 12 µg/well [1, 3]: > 50%; BAW 50 ug/cm2 ([2]; 128-well diet tray assay, second instar BAW larvae, 50 μg/cm2 of test compound on diet; mortality class): A (the compound was tested and at least 50 percent mortality was observed); pest or weed control at 50 µg/cm2, 50 µg/cm2 ([2]; Spodoptera exigua, 144 h; 128-well diet tray assay; 50 μg/cm^2 of test compound on diet; second instar BAW larvae; mortality class; read-out: BAW 50 ug/cm2): > 50%
11 | CCCc1ccc(-n2cnc(-c3ccc(C=NOC4OC(C)C(OC)C(OC)C4OC)cc3)c2)cc1 (centres unmarked) [Compound 27] | – | A (the compound was tested and at least 50 percent mortality was observed) | A (the compound was tested and at least 50 percent mortality was observed) | A (the compound was tested and at least 50 percent mortality was observed) | –
12 | COC1C(C)OC(ON=Cc2ccc(-n3ccc(-c4cccs4)n3)cc2)C(OC)C1OC (centres unmarked) [Compound 4] | B (either (1) the compound was tested and less than 50 percent mortality was observed or (2) the compound was not tested) | – | – | B (either (1) the compound was tested and less than 50 percent mortality was observed or (2) the compound was not tested) | BAW 50 ug/cm2 ([2]; 128-well diet tray assay, second instar BAW larvae, 50 μg/cm^2 of test compound on diet; mortality class): B (either (1) the compound was tested and less than 50 percent mortality was observed or (2) the compound was not tested)
13 | CCO[C@@H]1[C@@H](OC)[C@H](C)O[C@@H](OC(=O)Nc2ccc(N3CC(=O)N(c4ccc(OC(F)(F)C(F)(F)F)cc4)CC3=O)cc2)[C@@H]1OC [Compound 243] | B (either (1) the compound was tested and less than 50 percent mortality was observed or (2) the compound was not tested) | B (either (1) the compound was tested and less than 50 percent mortality was observed or (2) the compound was not tested) | B (either (1) the compound was tested and less than 50 percent mortality was observed or (2) the compound was not tested) | – | –
14 | CCOC1C(OC)C(C)OC(ON=Cc2ccc(-c3ncn(-c4ccc(C#N)cc4)n3)cc2)C1OC (centres unmarked) [Compound 126] | – | B (either (1) the compound was tested and less than 50 percent mortality was observed or (2) the compound was not tested) | A (the compound was tested and at least 50 percent mortality was observed) | B (either (1) the compound was tested and less than 50 percent mortality was observed or (2) the compound was not tested) | –
15 | CCO[C@@H]1[C@@H](OC)[C@H](C)O[C@@H](OC(=O)Nc2ccc(-c3cnnc(-c4ccc(OC(F)(F)F)cc4)n3)cc2)[C@@H]1OC [Compound 238] | B (either (1) the compound was tested and less than 50 percent mortality was observed or (2) the compound was not tested) | B (either (1) the compound was tested and less than 50 percent mortality was observed or (2) the compound was not tested) | A (the compound was tested and at least 50 percent mortality was observed) | – | –

Reference: patent US8178658B2 (Dow AgroSciences, LLC, priority 2008, dated 2012)
